Experimental data taken from patent publication US20110129423A1, “ANTICANCER COMPOUNDS AND SCREENING METHOD” (priority 2009, published 2011).
Several values for one entry are separate records, joined by “and”; a condition that tells them apart may be missing. Equal values may be shown once.

Columns and labels:
[1] = test system: systemic (serum) levels of testosterone, estradiol, estrone and DHEA; experiment: Systemic steroid hormone levels in rats dosed daily for 14 days; type: in vivo, rat; settings: 100 mg/kg daily, by day 7
Description: Plasma samples were processed by liquid/liquid extraction using MTBE. The organic portions containing the analytes were evaporated and dried extracts were incubated at 60° C. with a dansyl chloride solution. The resulting steroid derivatives were analyzed on a Waters Xbridge™ Phenyl column by reversed-phase high-performance liquid chromatography (Agilent, Palo Alto, Calif. and Leap Technologies, Carrboro, N.C.) coupled with a tandem quadrupole mass spectrometer (Waters, Beverly, Mass.). Calibration curves for standards and QC samples for […] (Estradiol, E2) and Estrone (E1) were analyzed in parallel with the samples. Sample responses were acquired and concentrations were determined based on the calibration using Masslynx™ analysis software (Waters, Beverly, Mass.). Determination of QC statistics was performed by subtracting the endogenous concentration determined in native plasma from the total concentration found in the QC sample. No PK calculations were performed on this study. The quantifiable range of detection for E2 was 5.0 to 200.0 pg/mL. The quantifiable range of detection for E1 was 10.0 to 200.0 pg/mL. Values below the detection limit were identified as such and reported.
(§1) T, A4 and DHEA assay. Plasma samples were processed by liquid/liquid extraction using MTBE (methyl-t-butyl ether). The organic portions containing the free steroids were evaporated and the dried extracts were incubated at 60° C. with a hydroxylamine hydrochloride solution. The resulting steroid-oxime derivatives were extracted with MTBE. The organic portions containing the steroid-oxime derivatives were evaporated to dryness, reconstituted in 80/20 water/acetonitrile, and analyzed on a Waters Xbridge™ Phenyl column by reversed-phase high-performance liquid chromatography (Agilent, Palo Alto, Calif. and Leap Technologies, Carrboro, N.C.) coupled with a tandem quadrupole mass spectrometer (Waters, Beverly, Mass.). Calibration curves prepared in water and QC samples prepared in native plasma for T (4-androstene-3-one-17β-ol), A4 (4-androstene-3,17-dione), and DHEA were analyzed in parallel with the samples. Sample responses were acquired and concentrations were determined based on the calibration curve using Masslynx™ analysis software (Waters, Beverly, Mass.). Determination of QC statistics was performed by subtracting the endogenous concentration determined in native plasma from the total concentration found in the QC sample.
The quantifiable range of detection for T was 10.0 to 20000.0 pg/mL in rat (example 3) and dog (this example) samples. The quantifiable range of detection for A4 was 10.0 to 20000.0 pg/mL in rats and 20.0 to 20000.0 pg/mL in dogs. The quantifiable range of detection for DHEA was 50.0 to 200.0 pg/mL in both species. […]

[2] = Toxicity observation in the 28-day dog study; type: in vivo; settings: dogs, 20, 60 or 200 mg/kg oral daily for 28 days
Description: (§2) Effects of the test compound 17α-ethynylandrostane-3α,17β-[…] on steroidogenesis in dogs in vivo. Samples were collected from male dogs (5/group) treated with 0, 20, 60 or 200 mg/kg of 17α-ethynylandrostane-3α,17β-diol before dosing on days 1, 14, and 28. The animals were dosed daily for 28 days. The samples were analyzed for testosterone (T), androstendione (A4), and dehydroepiandrosterone (DHEA). Day 1 and day 28 vehicle and 60 mg/kg samples were assayed for luteinizing hormone. The compound was administered by oral administration of a 20 mg/mL 17α-ethynylandrostane-3α,17β-diol solution made of 40% 2-hydroxypropyl-β-cyclodextrin in water.

[3] = test system: steroidogenesis in dogs; experiment: Effects on steroidogenesis in dogs in vivo (plasma T, A4, DHEA by LC-MS/MS); design: species or system dog; settings: for Testosterone Concentrations: male dogs
Description: as §2, §1
The quantifiable range of detection for T was 10.0 to 20000.0 pg/mL in rat (example 3) and dog (this example) samples. The quantifiable range of detection for A4 was 10.0 to 20000.0 pg/mL in rats and 20.0 to 20000.0 pg/mL in dogs. The quantifiable range of detection for DHEA was 50.0 to 200.0 pg/mL in both species. Values below the detection limit were identified as such.

[4] = test system: ACTH, LH, and FSH; experiment: Peptide hormone assays (ELISA) in rat plasma; type: in vivo; settings: rats, 100 mg/kg daily for 14 days
Description: Peptide Hormone Assays. ELISA kits for the quantification of ACTH, LH, and FSH in rat plasma were obtained from USCN Life, Wuhan, China. All other reagents were obtained from Sigma Chemical Co, St. Louis, Mo. ELISA results were measured on an ELx800 plate reader (Bio-Tek, Winooski, Vt.). Samples were assayed for ACTH, LH, and FSH concentration by means of an ELISA assay kit according to the manufacturer's instructions. For the rat samples, although 100 μL of undiluted plasma were required for each assay, […], 100 μL (LH), or 30 μL (FSH) were used in order to obtain results in the quantifiable range of the assay. Samples from Day 14 were assayed in duplicate; samples from Day 0 and Day 7 were assayed singly due to the small sample volume available. Concentrations were calculated from an eight-point standard curve. Thirty-five μL of dog plasma was used for the LH assay.
The compound 17α-ethynylandrostane-3α,17β-diol (100 mg/kg) was administered to rats (n=5) daily for 14 days. The compound was a 20 mg/mL solution made of […] 2-hydroxypropyl-β-cyclodextrin in water. Vehicle lacking the compound was administered to control animals (n=5). By day 7 in the dosing period, systemic (serum) levels of testosterone, estradiol, estrone and DHEA had fallen by over 99% to essentially undetectable levels in the treated animals. Changes in LH, FSH and ACTH were not observed.

[5] = dogs, end of 28 days of daily oral dosing, dose group not specified

In the case of `C#C[C@]1(O)CC[C@H]2[C@@H]3CCC4C[C@H](O)CC[C@]4(C)[C@H]3CC[C@@]21C` (stereo partly drawn) [17α-ethynylandrostane-3α,17β-diol], the “fall of systemic (serum) level of DHEA” value [1] is reported as “over 99%”, the “fall of systemic (serum) level of estradiol” value [1] is reported as “over 99%” and the “fall of systemic (serum) level of estrone” value [1] is reported as “over 99%”. For the same compound, the “fall of systemic (serum) level of testosterone” value [1] was “over 99%”, the “toxicity in the animals” value [2] was “Significant toxicity was not observed” and the “decrease of A4 (androstendione) level compared to vehicle control” value [3, 5] was “about 99%”. The “decrease of DHEA level” value [3, 5] was “about 90%”, the “decrease of T (testosterone) level compared to vehicle control” value [3, 5] was “about 99%” and the “Testosterone Concentrations” value ([3]; 20 mg/kg oral daily, day 1 sample before dosing (baseline), individual animals A111M-A115M, 20 mg/kg) was 1747.2 pg/mL and 1677.0 pg/mL and 668.6 pg/mL and 771.4 pg/mL and 2450.6 pg/mL. The “Testosterone Concentrations” value ([3]; 20 mg/kg oral daily, day 14, individual animals A111M-A115M, 20 mg/kg) was 67.8 pg/mL and 51.1 pg/mL and 344.9 pg/mL and 90.1 pg/mL and 94.4 pg/mL, the “Testosterone Concentrations” value ([3]; 20 mg/kg oral daily, day 28, individual animals A111M-A115M, BQL = below the limit of quantitation (lower limit 10.0 pg/mL), 20 mg/kg) was 19.3 pg/mL and 60.8 pg/mL and 143.8 pg/mL and 173.0 pg/mL and BQL and the “Testosterone Concentrations” value ([3]; 60 mg/kg oral daily, day 1 sample before dosing (baseline), individual animals A121M-A125M, 60 mg/kg) was 46.9 pg/mL and 711.2 pg/mL and 723.8 pg/mL and 1371.3 pg/mL and 1659.6 pg/mL. For the same compound, the “Testosterone Concentrations” value ([3]; 60 mg/kg oral daily, day 14, individual animals A121M-A125M, 60 mg/kg) was 173.7 pg/mL and 38.5 pg/mL and 110.4 pg/mL and 144.1 pg/mL and 338.0 pg/mL, the “Testosterone Concentrations” value ([3]; 60 mg/kg oral daily, day 28, individual animals A121M-A125M, BQL = below the limit of quantitation (lower limit 10.0 pg/mL), 60 mg/kg) was 18.9 pg/mL and BQL (4×) and the “Testosterone Concentrations” value ([3]; 200 mg/kg oral daily, day 1 sample before dosing (baseline), individual animals A131M-A135M, 200 mg/kg) was 503.3 pg/mL and 350.3 pg/mL and 1816.6 pg/mL and 1891.0 pg/mL. For the same compound, the “Testosterone Concentrations” value ([3]; 200 mg/kg oral daily, day 14, individual animals A131M-A135M, BQL = below the limit of quantitation (lower limit 10.0 pg/mL), 200 mg/kg) was “BQL (2×) and 119.5 pg/mL and 236.6 pg/mL and 18.1 pg/mL”, the “Testosterone Concentrations” value ([3]; 200 mg/kg oral daily, day 28, individual animals A131M-A135M, BQL = below the limit of quantitation (lower limit 10.0 pg/mL), 200 mg/kg) was “BQL (2×) and 11.2 pg/mL and 10.2 pg/mL” and the “changes in ACTH” value [4] was “not observed”. The “changes in FSH” value [4] was “not observed” and the “changes in LH” value [4] was “not observed”.
